Data taken from patent publication US4670584A, “Pharmaceutical composition having an excellent absorption property” (Ajinomoto Company Incorporated, priority 1986, dated 1987).
Residues, ends and D or L forms follow the SMILES beside them. *: point of attachment. Cbz = O=C(OCc1ccccc1)*

How the values were obtained:
[1] = Oral insulin absorption in female ICR-CD-1 mice: percent decrease in blood glucose and degree of elevation of blood insulin; format: in vivo, mouse (Female ICR-CD-1 mice); conditions: vs control group
Experimental: The absorption promoter samples listed in Table 2 were dissolved or suspended in 0.5% CMC-0.05M tris-HCl buffers (pH: 7.8) and the solutions or suspensions were mixed with aqueous insulin solution. Female ICR-CD-1 mice 5 to 7 weeks old were orally administered predetermined amounts of the mixtures. A predetermined duration later, the percent decrease in blood glucose and the degree of elevation of blood insulin as compared with the control group were measured. The symbol "Z" in the structural formulas in the table represents a benzyloxycarbonyl group. The upper figures in the columns "effectiveness" represent the percent decrease in blood glucose and the lower parenthesized figures indicate the degree of elevation in blood insulin.

[2] = Toxicity studies of phenylalanine derivatives, oral, in female CD-1(ICR) mice; conditions: mouse, in vivo, suspended in 0.5% CMC
Description: Toxicity Studies of Phenylalanine Derivatives with Oral IN Potentiating Activity in Female CD-1(ICR) Mice are as follows:
Phenylalanine derivatives were suspended in 0.5% CMC.

[3] = Degree of decrease in blood glucose after intraduodenal administration with insulin in rats; format: in vivo, rat (Male SD rats); conditions: male SD rats, 1.5 mg/10 body weight with insulin 1.25 U/10 g, mean
Experimental: Each (Administration: 1.5 mg/10 body weight) of the absorption promoters, phenylalanine derivatives as previously listed in the table was dissolved or suspended in 0.01M phosphate buffer (pH 7.5) and the solution or suspension was mixed with aqueous insulin (Administation: 1.25 U/10 g body weight) solution. Male SD rats, 6 weeks old, were intraduodenally administrated with predetermined amounts of the mixtures after being incised abdominally. The incised wounds were sutured quickly. A predetermined duration later, the percent decreases in blood glucose were determined. In the experiment, four rats a group were used, and the experiment was repeated 2 to 5 times. The mean values of the thus obtained data were described in the table.

[4] = Usefulness as absorption promoter; conditions: statement in words, no data
[5] = sample 6.0 mg/10 g with insulin 2.5 U/10 g, 30 minutes
[6] = sample 6.0 mg/10 g with insulin 2.5 U/10 g, 60 minutes

SMILES: O=C(COc1ccc([N+](=O)[O-])cc1)NC(Cc1ccc([N+](=O)[O-])cc1)C(=O)O (racemic) [Sample S-2, N-[(4-nitrophenoxy)acetyl]-4-nitro-DL-phenylalanine]
- Decrease in Blood Glucose [1, 5]: 23.2%

SMILES: O=C(N[C@@H](Cc1ccccc1)C(=O)N[C@@H](Cc1ccccc1)C(=O)O)OCc1ccccc1 [Sample S-7, N-benzyloxycarbonyl-L-phenylalanyl-L-phenylalanine] (Cbz-Phe-Phe-OH)
- LD50 [2]: > 3000 mg/kg

SMILES: O=C(N[C@H](Cc1ccccc1)C(=O)O)OCc1ccccc1 [Sample S-18, N-benzyloxycarbonyl-D-phenylalanine]
- LD50 [2]: > 4000 mg/kg

SMILES: O=C(C=Cc1cccc2ccccc12)N[C@@H](Cc1ccccc1)C(=O)O [Sample S-45, N-(1-naphthylacryloyl)-L-phenylalanine]
- Decrease in Blood Glucose ([3]; 30 minutes): 41.2%
- Decrease in Blood Glucose ([3]; 60 minutes): 35.4%

SMILES: O=C(COc1ccccc1)N[C@@H](Cc1ccccc1)C(=O)O [Sample S-5, N-phenoxyacetyl-L-phenylalanine]
- LD50 [2]: > 4000 mg/kg

SMILES: O=C(N[C@@H](Cc1ccccc1)C(=O)N[C@@H](Cc1ccc(O)cc1)C(=O)O)OCc1ccccc1 [Sample S-10, N-benzyloxycarbonyl-L-phenylalanyl-L-tyrosine] (Cbz-Phe-Tyr-OH)
- LD50 [2]: > 3000 mg/kg

SMILES: COc1ccc(COC(=O)N[C@@H](Cc2ccccc2)C(=O)O)cc1 [Sample S-17, N-(4-methoxybenzyloxycarbonyl)-L-phenylalanine]
- LD50 [2]: 750 mg/kg

SMILES: O=C(NC(Cc1ccc(F)cc1)C(=O)N[C@@H](Cc1ccccc1)C(=O)O)OCc1ccccc1 (mixture of isomers) [Sample S-22, N-benzyloxycarbonyl-4-fluoro-DL-phenylalanyl-L-phenylalanine]
- Decrease in Blood Glucose ([1]; sample 3.0 mg/10 g with insulin 2.5 U/10 g, 30 minutes): 63.1%

SMILES: O=C(N[C@@H](Cc1ccc(O)cc1)C(=O)O)OCc1ccccc1 [Sample S-16, N-benzyloxycarbonyl-L-tyrosne]
- Decrease in Blood Glucose [1, 6]: 27.2%

SMILES: O=C(N[C@H](Cc1ccccc1)C(=O)O)C(Cl)=Cc1ccccc1 [Sample S-50, N-(α-Chlorocinnamoyl)-D-phenylalanine 1/2C2 H5 OH]
- Decrease in Blood Glucose ([3]; 30 minutes): 79.0%
- Decrease in Blood Glucose ([3]; 60 minutes): 74.9%

SMILES: CC(=O)N[C@@H](Cc1ccccc1)C(=O)O [N-acetylphenylalanine]
- usefulness as absorption promoter [4]: not useful as absorption promoters

SMILES: O=C(C=Cc1ccccc1)N[C@@H](Cc1ccccc1)C(=O)O [Sample S-3, N-cinnamoyl-L-phenylalanine]
- LD50 [2]: > 2500 mg/kg

SMILES: Cc1ccc(C=CC(=O)N[C@H](Cc2ccccc2)C(=O)O)cc1 [Sample S-47, N-(4-methylcinnamoyl)-D-phenylalanine]
- Decrease in Blood Glucose ([3]; 30 minutes): 52.3%
- Decrease in Blood Glucose ([3]; 60 minutes): 41.0%

SMILES: CCc1ccc(C=CC(=O)N[C@H](Cc2ccccc2)C(=O)O)cc1 [Sample S-40, N-(4-ethylcinnamoyl)-D-phenylalanine]
- Decrease in Blood Glucose ([3]; 30 minutes): 33.9%
- Decrease in Blood Glucose ([3]; 60 minutes): 28.1%

SMILES: O=C(N[C@@H](Cc1ccccc1)C(=O)O)OCc1ccccc1 [Sample S-15, N-benzyloxycarbonyl-L-phenylalanine]
- LD50 [2]: > 2750 mg/kg

SMILES: O=C(COc1ccc2ccccc2c1)N[C@@H](Cc1ccccc1)C(=O)O [Sample S-12, N-[(2-naphthoxy)acetyl]-L-phenylalanine]
- LD50 [2]: > 4000 mg/kg

SMILES: O=C(N[C@H](Cc1ccccc1)C(=O)O)C(F)=Cc1ccccc1 [Sample S-48, N-(α-fluorocinnamoyl)-D-phenylalanine]
- Decrease in Blood Glucose ([3]; 30 minutes): 73.7%
- Decrease in Blood Glucose ([3]; 60 minutes): 72.9%

SMILES: N[C@@H](Cc1ccccc1)C(=O)O [Phenylalanine]
- usefulness as absorption promoter [4]: not useful as absorption promoters

SMILES: Cc1cccc(C=CC(=O)N[C@@H](Cc2ccccc2)C(=O)O)c1 [Sample S-41, N-(3-methylcinnamoyl)-L-phenylalanine]
- Decrease in Blood Glucose ([3]; 30 minutes): 50.5%
- Decrease in Blood Glucose ([3]; 60 minutes): 35.3%

SMILES: Cc1cccc(C=CC(=O)N[C@H](Cc2ccccc2)C(=O)O)c1 [Sample S-42, N-(3-methylcinnamoyl)-D-phenylalanine]
- Decrease in Blood Glucose ([3]; 30 minutes): 48.8%
- Decrease in Blood Glucose ([3]; 60 minutes): 40.7%

SMILES: O=C(C=Cc1ccc2ccccc2c1)N[C@H](Cc1ccccc1)C(=O)O [Sample S-38, N-(2-Naphthylacryloyl)-D-phenylalanine]
- Decrease in Blood Glucose ([3]; 30 minutes): 27.0%
- Decrease in Blood Glucose ([3]; 60 minutes): 24.7%

SMILES: O=C(C=Cc1cccc(Cl)c1)N[C@H](Cc1ccccc1)C(=O)O [Sample S-44, N-(3-chlorocinnamoyl)-D-phenylalanine]
- Decrease in Blood Glucose ([3]; 30 minutes): 55.0%
- Decrease in Blood Glucose ([3]; 60 minutes): 49.3%

SMILES: CCc1ccc(C=CC(=O)N[C@@H](Cc2ccccc2)C(=O)O)cc1 [Sample S-39, N-(4-ethylcinnamoyl)-L-phenylalanine]
- Decrease in Blood Glucose ([3]; 30 minutes): 56.0%
- Decrease in Blood Glucose ([3]; 60 minutes): 32.5%

SMILES: O=C(CCCc1ccccc1)N[C@@H](Cc1ccccc1)C(=O)O [Sample S-8, N-(4-phenylbutyroyl)-L-phenylalanine]
- Decrease in Blood Glucose [1, 5]: 57.1%
- Decrease in Blood Glucose [1, 6]: 35.6%

SMILES: O=C(C=Cc1cccc(Cl)c1)N[C@@H](Cc1ccccc1)C(=O)O [Sample S-43, N-(3-chlorocinnamoyl)-L-phenylalanine]
- Decrease in Blood Glucose ([3]; 30 minutes): 50.9%
- Decrease in Blood Glucose ([3]; 60 minutes): 46.9%

SMILES: O=C(N[C@@H](Cc1ccccc1)C(=O)O)C(Cl)=Cc1ccccc1 [Sample S-49, N-(α-Chlorocinnamoyl)-L-phenylalanine 1/2C2 H5 OH]
- Decrease in Blood Glucose ([3]; 30 minutes): 63.2%
- Decrease in Blood Glucose ([3]; 60 minutes): 49.1%

SMILES: O=C(COc1ccc(Cl)cc1)N[C@@H](Cc1ccccc1)C(=O)O [Sample S-13, N-[(4-chlorophenoxy)acetyl]-L-phenylalanine]
- LD50 [2]: > 3500 mg/kg

SMILES: O=C(C=Cc1ccc2ccccc2c1)N[C@@H](Cc1ccccc1)C(=O)O [Sample S-37, N-(2-Naphthylacryloyl)-L-phenylalanine]
- Decrease in Blood Glucose ([3]; 30 minutes): 55.3%
- Decrease in Blood Glucose ([3]; 60 minutes): 40.2%

SMILES: O=C(COc1cccc2ccccc12)N[C@@H](Cc1ccccc1)C(=O)O [Sample S-11, N-[(1-naphthoxy)acetyl]-L-phenylalanine]
- LD50 [2]: > 4000 mg/kg

SMILES: O=C(C=Cc1cccc2ccccc12)N[C@H](Cc1ccccc1)C(=O)O [Sample S-46, N-(1-naphthylacryloyl)-D-phenylalanine]
- Decrease in Blood Glucose ([3]; 30 minutes): 41.6%
- Decrease in Blood Glucose ([3]; 60 minutes): 28.8%
